Experimental data: US9326513B2, “Fungicidal compositions” (Syngenta Participations AG, priority 2011, dated 2016)

How the values were obtained:
Format in all cases: in vivo
Conditions in all cases: foliar, compared to untreated control leaf disks, read-out: disease control
[1] = test system: Puccinia recondita f. sp. tritici; experiment: Puccinia recondita f. sp. tritici / wheat / leaf disc curative (brown rust)
Protocol: Puccinia recondita f. sp. tritici/Wheat/Leaf Disc Curative (Brown Rust) Wheat leaf segments cv. Kanzler are placed on agar in multiwell plates (24-well format). The leaf segments are inoculated with a spore suspension of the fungus. Plates were stored in darkness at 19° C. and 75% rh. The formulated test compound diluted in water was applied 1 day after inoculation.

[2] = test system: Puccinia recondita f. sp. tritici; experiment: Puccinia recondita f. sp. tritici / wheat / leaf disc preventative (brown rust)
Description: Puccinia recondita f. sp. tritici/Wheat/Leaf Disc Preventative (Brown Rust) Wheat leaf segments cv. Kanzler were placed on agar in multiwell plates (24-well format) and sprayed with the formulated test compound diluted in water. The leaf disks were inoculated with a spore suspension of the fungus 1 day after application.

[3] = test system: Blumeria graminis f. sp. tritici (Erysiphe graminis f. sp. tritici); experiment: Blumeria graminis f. sp. tritici / wheat / leaf disc preventative (powdery mildew on wheat)
Procedure, shortened: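 Wheat leaf segments (cv. Kanzler) on agar were sprayed with formulated compound in water, inoculated with powdery mildew 1 day later, and kept at 20° C, 60% rh (24 h dark, then 12 h light/12 h dark). Percent disease control versus untreated scored 6-8 days after application; tested at 200 ppm.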

[4] = test system: Pyrenophora teres; experiment: Pyrenophora teres / barley / leaf disc preventative (net blotch)
Description: Pyrenophora teres/Barley/Leaf Disc Preventative (Net Blotch) Barley leaf segments cv. Hasso were placed on agar in a multiwell plate (24-well format) and sprayed with the formulated test compound diluted in water. The leaf segments were inoculated with a spore suspension of the fungus 2 days after application.

Measured: pest or weed control at 200 ppm

CCN(C)/C=N/c1cc(Br)c(OCCCC(O)CCl)nc1C (stereo not drawn) [Q.059]
≥ 50%: [1] | [2] | [3] | [4]

CCCc1cccc(C(C)Oc2nc(C)c(/N=C/N(C)CC)cc2Br)c1 (stereo not drawn) [Q.344]
≥ 50%: [1] | [2] | [3] | [4]

CCN(C)/C=N/c1cc(Br)c(OC2CC(C)=C(C)C2)nc1C [Q.315]
≥ 50%: [1] | [2] | [3] | [4]

CCN(C)/C=N/c1cc(C2CC2)c(OC(C)c2cc(F)cc(F)c2)nc1C (stereo not drawn) [Q.216]
≥ 50%: [1] | [2] | [3] | [4]

CCN(C)/C=N/c1cc(Br)c(OC(C)c2ccccc2F)nc1C (stereo not drawn) [Q.299]
≥ 50%: [1] | [2] | [3] | [4]

CCN(C)/C=N/c1cc(Br)c(OCc2ccc(C)cc2C)nc1C [Q.324]
≥ 50%: [1] | [2] | [3] | [4]

CCN(C)/C=N/c1cc(Br)c(OC(C)C2CCCc3ccccc32)nc1C (stereo not drawn) [Q.227]
≥ 50%: [1] | [2] | [3] | [4]

CCN(C)/C=N/c1cc(I)c(OC(C)c2cc(F)cc(F)c2)nc1C (stereo not drawn) [Q.178]
≥ 50%: [1] | [2] | [3] | [4]

CCN(C)/C=N/c1cc(Br)c(OC(C)Cc2cccc(F)c2)nc1C (stereo not drawn) [Q.218]
≥ 50%: [1] | [2] | [3] | [4]

CCN(C)/C=N/c1cc(Br)c(OC(C)c2cc(-c3ccccc3)no2)nc1C (stereo not drawn) [Q.075]
≥ 50%: [1] | [2] | [3] | [4]

CCN(C)/C=N/c1cc(Br)c(OC2CCC(c3ccccc3)CC2)nc1C (stereo not drawn) [Q.082]
≥ 50%: [1] | [2] | [3] | [4]

CCN(C)/C=N/c1cc(Br)c(OCCC2CC2)nc1C [Q.222]
≥ 50%: [1] | [2] | [3] | [4]

C=Cc1cccc(COc2nc(C)c(/N=C/N(C)CC)cc2Br)c1 [Q.277]
≥ 50%: [1] | [2] | [3] | [4]

CCN(C)/C=N/c1cc(Br)c(OCc2cccc(F)c2)nc1C [Q.176]
≥ 50%: [1] | [2] | [3] | [4]

CCN(C)/C=N/c1cc(Br)c(OC2CCN(S(C)(=O)=O)CC2)nc1C [Q.163]
≥ 50%: [1] | [2] | [3] | [4]

CCN(C)/C=N/c1cc(Br)c(OC(C)c2ccc(F)c(F)c2)nc1C (stereo not drawn) [Q.204]
≥ 50%: [1] | [2] | [3] | [4]

CCN(C)/C=N/c1cc(Br)c(OC(C)CCc2ccc(OC)cc2)nc1C (stereo not drawn) [Q.013]
≥ 50%: [1] | [2] | [3] | [4]

Cc1ccccc1CC(C)Oc1ccc(/N=C/N(C)C(C)C)c(C)n1 (stereo not drawn) [Q.355]
≥ 50%: [1] | [2] | [3] | [4]

CCN(C)/C=N/c1cc(Br)c(OC2Cc3cc(Cl)c(OC)cc3C2)nc1C (stereo not drawn) [Q.378]
≥ 50%: [1] | [2] | [3] | [4]

Cc1ccccc1CCOc1ccc(/N=C/N(C)C(C)C)c(C)n1 [Q.352]
≥ 50%: [1] | [2] | [3] | [4]

CCN(C)/C=N/c1cc(I)c(OCc2ccccc2C)nc1C [Q.386]
≥ 50%: [1] | [2] | [3] | [4]

CCN(C)/C=N/c1cc(Br)c(OC(C)CCCc2ccccc2)nc1C (stereo not drawn) [Q.201]
≥ 50%: [1] | [2] | [3] | [4]

CCN(C)/C=N/c1cc(Br)c(OC2CCc3ccccc3C2)nc1C (stereo not drawn) [Q.110]
≥ 50%: [1] | [2] | [3] | [4]

C=C(C)c1nc(OCc2ccccc2C)c(Br)cc1/N=C/N(C)CC [Q.400]
≥ 50%: [1] | [2] | [3] | [4]

C=CCCCOc1nc(C)c(/N=C/N(C)CC)cc1C [Q.057]
≥ 50%: [1] | [2] | [3] | [4]

CCN(C)/C=N/c1cc(Br)c(OCCc2ccc(C)cc2)nc1C [Q.364]
≥ 50%: [1] | [2] | [3] | [4]

CCN(C)/C=N/c1cc(Br)c(OC2CCC3CCCCC3C2)nc1C (stereo not drawn) [Q.027]
≥ 50%: [1] | [2] | [3] | [4]

CCN(C)/C=N/c1cc(Br)c(OC2CCC(=C(Cl)Cl)CC2)nc1C (stereo not drawn) [Q.071]
≥ 50%: [1] | [2] | [3] | [4]

CCN(C)/C=N/c1cc(Br)c(OCCc2ccccc2C)nc1C [Q.349]
≥ 50%: [1] | [2] | [3] | [4]

CCN(C)/C=N/c1cc(Br)c(OC2CC(C)C(C)C2)nc1C (stereo not drawn) [Q.382]
≥ 50%: [1] | [2] | [3] | [4]

CCN(C)/C=N/c1cc(Br)c(OC2CCC(OC(=O)C(C)C)CC2)nc1C (stereo not drawn) [Q.211]
≥ 50%: [1] | [2] | [3] | [4]

CCN(C)/C=N/c1cc(Br)c(OCCCc2ccc(F)cc2)nc1C [Q.131]
≥ 50%: [1] | [2] | [3] | [4]

CCN(C)/C=N/c1cc(Br)c(OC/C=C\c2cccc(OC)c2)nc1C [Q.023]
≥ 50%: [1] | [2] | [3] | [4]

CCN(C)/C=N/c1cc(Br)c(OCc2cccc(C)c2C)nc1C [Q.175]
≥ 50%: [1] | [2] | [3] | [4]

CCN(C)/C=N/c1cc(Br)c(OC(C)c2cc(C)cc(C)c2)nc1C (stereo not drawn) [Q.203]
≥ 50%: [1] | [2] | [3] | [4]

C=CCOC1CCC(Oc2nc(C)c(/N=C/N(C)CC)cc2Br)CC1 (stereo not drawn) [Q.212]
≥ 50%: [1] | [2] | [3] | [4]

CCN(C)/C=N/c1cc(Br)c(OC(C)C2CCc3ccccc3C2)nc1C (stereo not drawn) [Q.225]
≥ 50%: [1] | [2] | [3] | [4]

CCN(C)/C=N/c1cc(Br)c(OCc2ccsc2)nc1C [Q.208]
≥ 50%: [1] | [2] | [3] | [4]

CCN(C)/C=N/c1cc(Br)c(OC2CCC(=C(C)C)CC2)nc1C (stereo not drawn) [Q.122]
≥ 50%: [1] | [2] | [3] | [4]

C=C1CCC(Oc2nc(C)c(/N=C/N(C)CC)cc2Br)CC1 [Q.293]
≥ 50%: [1] | [2] | [3] | [4]

CCN(C)/C=N/c1cc(Br)c(OC(C)c2ccns2)nc1C (stereo not drawn) [Q.246]
≥ 50%: [1] | [2] | [3] | [4]

CCN(C)/C=N/c1cc(Br)c(OCC#Cc2cccc(OC)c2)nc1C [Q.020]
≥ 50%: [1] | [2] | [3] | [4]
